Results from US10975352B2, “Methods of enhancing cell survival of stem cells” (The Scripps Research Institute, priority 2008, dated 2021).

Legend:
[1] = tested on: hESCs; assay: ALP positive colony formation / low-density survival assay of dissociated hESCs on Matrigel; assay type: cell-based, human; conditions: for Activity (% ALP positive colony formation by hESCs): Ratio of ALP positive colonies vs. total initially seeded cells
Procedure: Human ESC lines H1, HUES7 and HUES9 were cultured on irradiated MEF feeder cells in DMEM-F12 supplemented with 2 mM L-glutamine, lx nonessential amino acids, 20% serum replacement (Invitrogen) and 10 ng/ml basic Fibroblast growth factor (Invitrogen). Chemically-defined and feeder-free hESC culture was described previously (Yao, S. et al., Proc Natl Acad Sci USA 103 (18):6907-6912 (2006)). Briefly, hESCs were grown on Matrigel-coated tissue culture plates in N2B27-CDM (DMEM-F12 supplemented with 1×N2 supplements, lx B27 supplements, 2 mM L-glutamine, 0.11 mM 2-mercaptoethanol, lx nonessential amino acids, and 0.5 mg/ml BSA (fraction V)) and 20 ng/ml bFGF. Human ESCs were passaged every 5-6 days with 0.05% trypsin.
For clonal survival assays, single hESCs were diluted to clonal density and plated onto 96-well Matrigel-coated plate. For low-density survival assays, 500 cells were plated onto 96-well Matrigel-coated plate. To visualize hESC colonies, cultures were fixed in 4% paraformaldehyde in PBS for 5 min, washed once in PBS, then stained for alkaline phosphatase activity as described in manufacturer's instructions. ALP positive colonies were counted on an inverted microscope.
ALP detection kit and integrin antibodies were from Chemicon. AG825 (Erb2 inhibitor), AG1478 (EGFR inhibitor), PPP (IGFR1 inhibitor) were purchased from Calbiochem. Antibodies raised against the intracytoplasmic tail of E-cadherins (Transduction Laboratories, Lexington, Ky.) were used for immunoprecipitation. The antibody TS2/16 was from Pierce. Antibodies to the extracellular domain of E-cadherin molecule were from Zymed (Carlsbad). Antibodies against extracellular signal-regulated kinase/MAPK, EGFR1, ERB2, GADPH and phosphorylated form of AKT were from Cell Signaling. Mouse monoclonal anti-phosphotyrosine (4G-10 clone) was from Upstate Biotechnology. Ptn and Tzv were added to culture medium at 2 μM. […]

[2] = tested on: hESCs; assay: Cell adhesion assay; assay type: cell-based, human
Procedure: Cell adhesion assays were performed in 96-well microtiter plates coated with Matrigel. After trypsin, hESCs were resuspended in the chemically-defined media containing the desired compounds. Cells were then added to the microtiter wells and incubated for 3 h at 37° C. Unbound and loosely bound cells were removed by shaking and washing, and the remaining cells were then fixed immediately. The wells were washed 3 times with 200 μl of H2O, and attached cells were stained with Crystal Violet (Sigma). The absorbance of each well at 570 nm was then measured. For experiments with blocking antibodies, cells were pre-incubated with antibodies on ice for 30 min, and adhesion assays were performed in the presence of antibodies. Each sample was assayed independently for three times.

[3] = tested on: β1 integrin; assay: Activated β1 integrin (HUTS-21 binding; flow cytometry, immunostaining); assay type: cell-based, human; conditions: PMA 10 nM; immunostaining of active β1 integrins
Excerpt: To gain insights into the mechanism of β1 integrin regulation by Tzv and Ptn, we investigated whether the compounds' effect is due to changes of integrin expression. In contrast to E-cadherin, β1 integrin was not cleaved by trypsin. […] Thus, Tzv and Ptn are likely to affect cell adhesion by modulating integrin activity (FIG. 3 d,e). To examine the effects of compound treatment on the activity of β1 integrin, we used the monoclonal antibody HUTS-21, which specifically binds to the activated form of the 131 integrin (Luque, A. et al., J Biol Chem 271 (19):11067-11075 (1996)).
To assess the expression of E-cadherin, activated integrin and SSEA4, dissociated cells (3×10^5) were washed with PBS and resuspended in PBS containing 2% goat serum. Cells were then incubated with the appropriate antibody for 1 h at 4° C., washed with the blocking solution, and labeled with FITC-conjugated secondary antibody for 30 min at 4° C. Cells were then washed and analyzed on a FACS Calibur flow cytometer.

[4] = tested on: hESCs; assay: Karyotyping (G-banding) of long-term expanded hESCs; assay type: cell-based, human; conditions: more than 20 generations; chemically-defined medium
Procedure: Teratoma formation experiments were performed by injecting 3-5 million hESCs (maintained in the presence of compounds Tvz or Ptn) under the kidney capsule of nude mice. After 4-5 weeks, all mice developed teratomas, which were removed and then immunohistologically analyzed by The Scripps Research Institute Research Histology Service and Animal Resources. Compounds treated cells were karyotyped by standard G-banding at the Children's Hospital Oakland, Cytogenetics Laboratory. No chromosomal abnormality was found in the 10 randomly picked nuclei.

[5] = tested on: stem cells; assay: Survival and anti-differentiation of stem cells ex vivo; assay type: cell-based; conditions: human and mouse embryonic, neural, skin, mesenchymal, hematopoietic, stromal and epithelial stem cells; contact immediately after isolation
Excerpt: In some embodiments, the invention provides methods of promoting survival and anti-differentiation in stem cells ex-vivo.

[6] = tested on: epithelial to mesenchymal transition/EMT; assay: Induction of MET / inhibition of EMT; assay type: cell-based
[7] = tested on: growth factor receptors, AKT and ERK; assay: Western blot of phosphorylation status in hESCs; assay type: cell-based, human
Excerpt: Interplay between physical/structural environment and growth factor plays a very important role in cell fate regulation (Comoglio, P. M., Boccaccio, C., & Trusolino, L., Curr Opin Cell Biol 15 (5):565-571 (2003)). To examine whether growth factors are involved in integrin-mediated hESC survival, we treated dissociated hESCs with Tzv or Ptn together with individual highly specific growth factor receptor inhibitors. […] Similarly inhibition of FGFR, IGFR, EGFR1 or Erb2 also greatly abolished Tzv-induced hESC survival in suspension culture.
Phosphatidylinositol-3-kinase (PI-3K) signaling and MAPK/ERK are major regulators for hESC self-renewal (Armstrong, L. et al., Hum Mol Genet 15 (11): 1894-1913 (2006); Paling, N. R. et al., J Biol Chem 279 (46):48063-48070 (2004); Pyle, A. D., Lock, L. F., & Donovan, P. J., Nat Biotechnol 24 (3):344-350 (2006); Li, J. et al., Differentiation 75 (4):299-307 (2007)). Phosphorylation of ERK and AKT, a downstream effector of PI-3K, were increased upon treatment of dissociated hESCs with Ptn, and this increase was abolished by integrin blocking antibody (FIG. 4e,f). Moreover, activation of AKT and ERK by Ptn was blocked by inhibitors of FGFR, IGFR, EGFR or Erb2 (FIG. 4g and data not shown).

[8] = tested on: hESCs; assay: Cell death analysis of dissociated hESCs in suspension culture; assay type: cell-based, human
Excerpt: hESCs are known to be difficult in forming embryoid bodies (EBs) in suspension culture after single cell dissociation due to extensive cell death. Thus, we also tested whether Tzv or Ptn could promote survival of dissociated hESCs in suspension. […] Because cell aggregation is most often mediated through cell-cell adhesions and E-cadherin is the primary cell-cell adhesion molecule, as well as highly expressed in hESCs (Eastham, A. M. et al., Cancer Res 67 (23): 11254-11262 (2007)), we tested the effect of a specific E-cadherin blocking antibody on multicellular aggregate formation.
The hESCs under different treatments were dissociated by trypsin and fixed by 4% paraformaldehyde. And the staining was carried out according to the manufacturer's instructions (MBL Laboratories, Watertown, Mass.). After staining, samples were analysed by flow cytometry using a FACS Calibur flow cytometer (BD).

SMILES	Activity (% ALP positive colony formation by hESCs) [1] [%]	further results
O=C(NCc1ccccc1)c1csc(Nc2ccccc2)n1	4.5	–
O=C(NCc1ccccc1)c1csc(Nc2ccccn2)n1	5.2	–
O=C(NCc1ccccc1)c1csc(Nc2ccncc2)n1	20.3	–
COc1ccc(CNC(=O)c2csc(Nc3ccncn3)n2)cc1	5	–
CC(C)CCNS(=O)(=O)c1ccc(Nc2nccc(N3CCCc4cc(O)ccc43)n2)cc1	23.5	–
O=S(=O)(NC1CC1)c1ccc(Nc2nccc(N3CCCc4cc(O)ccc43)n2)cc1	8	–
O=C(NCC1CC1)c1ccc(Nc2nccc(N3CCCc4cc(O)ccc43)n2)cc1	2.9	–
CNS(=O)(=O)c1ccc(Nc2nccc(N3CCCc4cc(O)ccc43)n2)cc1	5.7	–
CC(C)CCNS(=O)(=O)c1ccc(Nc2nccc(N3CCc4ccccc43)n2)cc1	3.1	–
O=S(=O)(NC1CC1)c1ccc(Nc2nccc(N3CCc4ccccc43)n2)cc1	6.2	–
O=S(=O)(NCC1CC1)c1ccc(Nc2nccc(N3CCc4ccccc43)n2)cc1	6.1	–
O=S(=O)(NCC1CC1)c1ccc(Nc2nccc(N3Cc4ccccc4C3)n2)cc1	3.5	–
CNS(=O)(=O)c1ccc(Nc2nccc(N3CCc4ccccc4C3)n2)cc1	3.6	–
CC(C)CCNS(=O)(=O)c1ccc(Nc2nccc(N3CCc4ccccc4C3)n2)cc1	3.2	–
CNS(=O)(=O)c1ccc(Nc2nccc(N3CCCc4ccccc43)n2)cc1	3	–
CC(C)CCNS(=O)(=O)c1ccc(Nc2nccc(N3CCCc4ccccc43)n2)cc1	3.4	–
O=S(=O)(NC1CC1)c1ccc(Nc2nccc(N3CCCc4ccccc43)n2)cc1	3.1	–
O=S(=O)(NCC1CC1)c1ccc(Nc2nccc(N3CCCc4ccccc43)n2)cc1	5.2	–
CNS(=O)(=O)c1ccc(Nc2nccc(N3CCCc4cc(OC)ccc43)n2)cc1	3.1	–
COc1ccc2c(c1)CCCN2c1ccnc(Nc2ccc(S(=O)(=O)NCCC(C)C)cc2)n1	3.3	–
O=S(=O)(NCC1CC1)c1ccc(Nc2nccc(Nc3ccccc3)n2)cc1	3.3	–
CC(C)CCNS(=O)(=O)c1cccc(Nc2nccc(N3CCCc4cc(O)ccc43)n2)c1	3.1	–
CCCCCCCCCCCCCC(=O)O[C@@H]1[C@@H](C)[C@@]2(O)[C@@H](C=C(CO)C[C@]3(O)C(=O)C(C)=C[C@@H]23)[C@@H]2C(C)(C)[C@]12OC(C)=O [PMA, phorbol 12-myristate 13-acetate, reference compound]	–	cell adhesion and colony formation of dissociated hESCs [2]: substantial increase in cell adhesion and colony formation; integrin activation [3]: caused integrin activation
O=S(=O)(NCC1CC1)c1ccc(Nc2nccc(N3CCCc4cc(O)ccc43)n2)cc1 [Ptn, N-(cyclopropylmethyl)-4-(4-(6-hydroxy-3,4-dihydroquinolin-1(2H)-yl)pyrimidin-2-ylamino)benzenesulfonamide]	–	survival of dissociated hESCs in adherent culture ([1]; adherent culture (e.g. Matrigel-coated plate)): promoted survival; karyotype of hESCs serially passaged in compound-containing medium [4]: normal karyotype; adhesion of dissociated hESCs to Matrigel or laminin [2]: dramatically increased adhesion; adhesion of hESCs to gelatin or poly-lysine [2]: not affected; survival and anti-differentiation of stem cells [5]: effective in promoting survival and anti-differentiation; MET induction and EMT inhibition [6]: can induce MET (the reverse of EMT) and inhibit EMT; phosphorylation of ERK and AKT ([7]; dissociated hESCs): increased; phosphorylation of growth factor receptor ([7]; hESCs treated for 2 h, DMSO control): significantly increased the phosphorylation; survival of dissociated hESCs in suspension culture [8]: had no effect
CN(C)CCCn1cc(C2=C(c3c[nH]c4ccccc34)C(=O)NC2=O)c2ccccc21 [bisindolylmaleimide I, reference compound]	–	effect on increased cell adhesion induced by Ptn ([2]; PKC inhibitor in combination with Ptn): could antagonize the increased cell adhesion; effect on cell adhesion induced by Tzv ([2]; PKC inhibitor in combination with Tzv): had no effect
O=C(NCc1ccccc1)c1csc(Nc2ccncn2)n1 [drawing 17]	24.1	–
O=S(=O)(NCC1CC1)c1ccc(Nc2nccc(N3CCCc4cc(O)ccc43)n2)cc1 [drawing 23]	23.2	–
